Laboratory results: patent US5382670A, “Platelet activating factor antagonists” (priority 1993, dated 1995)
pKi: −log10 of the molar value. Where a name gives a salt, the structure may show the parent alone.

Biological target: PAF receptor (Oryctolagus cuniculus, UniProt G1TEI7)
Test: PAF receptor binding assay: inhibition of specific [3H]C18-PAF binding to rabbit platelet membranes
Settings: 0.6 nM [3H]C18-PAF, 60 min, 22-23 °C, Ki from IC50 (Cheng and Prusoff), read-out: Ki (PAF Receptor Binding Activity)
In short: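 Rabbit platelet membranes (10 μg protein) incubated 60 min at 22-23 °C with 0.6 nM [3H]C18-PAF in TME buffer pH 7.0 plus 0.25% BSA; nonspecific binding with 1 μM PAF. Filtered bound radioactivity counted; IC50 by point-to-point evaluation from ≥4 doses in triplicate, Ki by Cheng-Prusoff.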

Sequence of PAF receptor (G1TEI7 1-342): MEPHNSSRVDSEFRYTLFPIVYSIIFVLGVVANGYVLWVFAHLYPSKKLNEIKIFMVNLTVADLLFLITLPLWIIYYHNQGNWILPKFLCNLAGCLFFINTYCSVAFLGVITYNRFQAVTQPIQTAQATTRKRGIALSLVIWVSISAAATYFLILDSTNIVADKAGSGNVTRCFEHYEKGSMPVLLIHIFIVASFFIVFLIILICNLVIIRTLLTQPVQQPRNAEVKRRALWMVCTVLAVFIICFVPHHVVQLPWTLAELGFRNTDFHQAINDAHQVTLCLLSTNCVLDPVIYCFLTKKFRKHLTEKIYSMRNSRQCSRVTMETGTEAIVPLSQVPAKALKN

## O=C(C1CSC(c2cccnc2)N1)n1ccc2cc(OCc3ccccc3)ccc21 (stereo not shown) [Example 1, 1-[2-(3-pyridinyl)thiazolid-4-oyl]-5-phenylmethoxyindole]
  pKi: 8.15

## O=C(c1cn(C(=O)N2CCOCC2)c2cc(OCc3ccccc3)ccc12)C1CSC(c2cccnc2)N1 (stereo not shown) [Example 72, 1-(4-morpholinocarbonyl)-3-[2-(3-pyridinyl)thiazolid-4-oyl]-6-phenylmethoxyindole oxalate]
  pKi: 8.00

## O=C(c1c[nH]c2c(OCc3ccccc3)cccc12)C1CSC(c2cccnc2)N1 (stereo not shown) [Example 50, 7-phenylmethoxy-3-[2-(3-pyridinyl)thiazolid-4-oyl]indole]
  pKi: 9.00

## CC(C)(C)OC(=O)n1cc(C(=O)C2CSC(c3cccnc3)N2)c2ccc(OCc3ccccc3)cc21 (stereo not shown) [Example 35, 1-tert-butoxycarbonyl-6-phenylmethoxy-3-[2-(3-pyridinyl)thiazolid-4-oyl]indole oxalate]
  pKi: 9.00
